In PMC11969024, “Development of chemokine network inhibitors using combinatorial saturation mutagenesis” (Communications Biology, 2025):
Ends that are not written are not given here.

Columns and labels:
[1] = lyophilised peptide, data provided by the manufacturer, ref GenScript, cited from earlier work; for Solubility, Water: C-terminal amide
[2] = test system: THP1 cells; assay: Chemokine dose-response, THP1 cell migration; assay type: cell-based, human; details: mean of biological replicates (2-7); for Mean pEC80: 3-parameter log-logistic fit, maximum fixed at 100%
Description: (§1) Cell lines were confirmed mycoplasma free by monthly testing using a MycoAlert^TM kit (LT07-118, Lonza) following the manufacturer’s instructions. THP1 cells: THP1 cells (ECACC 88081201, a human monocyte leukemia cell line[51]) were obtained from ECACC and were cultured in T175 flasks at 0.3-1 × 10^6 cells/mL in Roswell Park Memorial Institute (RPMI) 1640 medium (R0883, Sigma) with 10% FBS (F9665, Sigma) and 5mM L-glutamine (G7513, Sigma), 37 °C, 5% CO2. J:CXCR1 cells: The J:CXCR1 cell line was cultured in the same manner as THP1 cells at 0.15-1 × 10^6 cells per mL[37]. Activated T-cells: T-cells were isolated, activated and expanded as follows. Briefly, density gradient centrifugation using Lymphoprep^TM density gradient medium (07801, […] Technologies) and a SepMate^TM isolation tube (85450, […] Technologies) was used to isolate peripheral blood mononuclear cells from human leukocyte cones. Two rounds of purification using a human CD8 + T-cell isolation kit (480011, BioLegend) were used to isolate CD8 + T-cells from peripheral blood mononuclear cells. Activation of CD8 + T-cells was performed in ImmunoCult^TM-XF T-cell expansion medium (10982, […] Technologies) with an anti-CD3/anti-CD28 T-cell activator at 25 μl/ml (10991, […] Technologies), supplemented with 10 ng/ml recombinant human IL-2 (200-02, PeproTech) with 1% penicillin/streptomycin. T-cells were passaged every 2–3 days in TexMACS medium (130-097-196, Miltenyi Biotec), supplemented with 10 ng/ml human IL-2 (200-05-250, Peprotech) and incubated at 37 °C in 5% CO2. CD8 + T-cells were frozen at day 10-13 after initial activation, at 20×10^6 cell/ml in TexMACS medium supplemented with 10% DMSO (D2650, Sigma) in liquid nitrogen. Activated CD8^+ T-cells were recovered in TexMACs medium at 0.3 × 10^6 cell/ml and incubated at 37 °C in 5% CO2, 24 h prior to use. For buffy coat experiments a mixture of primary human monocytes, granulocytes and lymphocytes was isolated from human buffy coat. Briefly, RBCs were sedimented in HetaSep (07806, […] Technologies) with 1 mL of HetaSep per 5 mL of blood for 15 min at 37 °C. The buffy coat layer was collected from the top and washed in 50 ml MACS buffer (PBS (P4417, Sigma), 0.5% BSA (A7030, Sigma), 0.075% EDTA (E5134, Sigma), pH 7.2), by centrifugation at 2000 g for 10 min at room temperature. The pellet was resuspended in 10 mL of 1x RBC lysis solution (130-094-183, Miltenyi Biotec) and lysed for 10 min at room temperature. The cells were then washed in MACS buffer twice as above. The final pellet was resuspended in 1 mL of MACS buffer per 5 mL of initial blood volume and counted using cell size FSC-H/SSC-H parameters with gate settings previously defined by immunostaining (see below). The leukocytes were then resuspended in assay buffer for cell migration and used within 30 min of isolation.
(§2) Cell counts were determined using an ATTUNE NxT Flow Cytometer with Cytkick autosampler (ThermoFisher), based on cell size parameters FSC-H/SSC-H, with previously defined gate settings. FSC-H/SSC-H gate settings for primary white blood cells from buffy coats were determined using flow cytometry to establish the granulocyte, monocyte and lymphocyte populations (Supplementary Fig. 13). Briefly, cells were labelled with anti-CD3 (Miltenyi Biotec, 130-113-135) to identify the T cell population, anti-CD14 (Miltenyi Biotec, 130-110-578) to identify the monocyte population, and with anti-CD16 (Miltenyi Biotec, 130-113-951) to identify the granulocyte population. Negative control cells were labelled with anti-human IgG1 (Miltenyi Biotec, 130-113-434). All antibodies were allophycocyanin (APC) conjugated. 100,000 white blood cells were added to Eppendorf tubes and centrifuged at 300 g for 3 min. The supernatant was discarded, and the cells resuspended in 98 µL of MACS buffer (1× PBS, 2 mM EDTA and 0.5% BSA, sterile filtered). 2 µl of antibody was added to the cells. […]

[3] = test system: panel of 22 biotinylated chemokines; assay: Saturation (NNK) mutagenesis phage-display selection against biotinylated chemokines, enrichment by NGS; assay type: binding, human; details: two-sided Dunnett's test; for log2E compared to parental HD2, CXnC chemokines: 7 CXnC chemokines; for log2E compared to parental HD2, all chemokines: three selection rounds, 22 chemokines; for log2E compared to parental HD2, CC chemokines: 15 CC chemokines
Excerpt: 81-mer mutant oligonucleotides replacing NNK at each of the 16 peptide encoding residues were designed with the sequence arms 5’-[…], and […]-3’ at respective ends to enable amplification and cloning. Oligonucleotides (Genscript) were individually amplified and cloned into plasmid prSTOP4Nsi (described in[37]). prSTOP4Nsi was amplified using primers (Sigma): […]
Oligonucleotides were amplified using primers (Sigma): oligo_fwd: 5’-[…] and oligo_rev2: 5’-[…]. The PCR products were cloned into prSTOP4Nsi plasmid using NEB Builder HiFi Assembly (E5520, NEB) following instructions of the manufacturer. The vector pool was used to transform electrocompetent ElectroMAX™ DH5α-E™ cells (11319019, Invitrogen). Plasmid DNA was harvested by MaxiPrep (GeneJet Plasmid Maxiprep Kit (K0491, Thermo Scientific)). DNA was transformed into SS320 phage display electrocompetent cells (60512, Lucigen), following the manufacturer’s protocol. Following electroporation, cells were resuspended in 950 μL recovery media and transferred to 50 mL Falcon tubes. 100 μL 10^11 CFU/mL M13KO7 helper phage (N0315S, NEB) was added, and tubes shaken at 37 °C, 220 RPM, 1 h. 1 mL recovery culture was added to 2YT medium containing +50ug/mL carbenicillin (C9231, Sigma) and 25ug/mL kanamycin (K1377, Sigma), and grown overnight at 37 °C, 220 RPM. Phage was precipitated from culture supernatant by adding 22.5 mL of supernatant to 4.5 mL 20% PEG 8000 (89510, Sigma)/2.5 M NaCl (S9625, Sigma), incubating on ice for 30 min, and centrifuging at 12857 g, 4 °C, 10 min. The phage pellet was resuspended in 1 mL of PBT (PBS (P4417, Sigma), BSA (A7030, Sigma) 0.20%, Tween 20 (P1379, Sigma) 0.05%). Undissolved particulate matter was removed by centrifugation at 15871 g, 4 °C, 10 min. Glycerol (G5516, Sigma, 10% final (v/v) was added, and aliquots stored at −80 °C. A schematic of phage-display library construction is provided in Supplementary Fig. 12.
Phage display screening was performed as described. Experiments were performed in 96-well plates (Greiner Bio-One, 655180). Biotinylated chemokines or complement C5A (1μg, Almac or Protein Foundry) were incubated overnight at 4 °C with shaking at 250 RPM with 5μl streptavidin-coated magnetic beads (Dynabeads™ M-280 Streptavidin, Invitrogen, 11205D) in 100 μl PBS. Chemokine-bound beads were blocked for two hours in 200μl blocking buffer (PBS (phosphate-buffered saline, Sigma, P4417) + 0.2% BSA (bovine serum albumin, Sigma, A7030) with shaking at 250 RPM. Phage library (100μL, 10^10 CFU/mL) was bound to blocked beads for two hours at room temperature with shaking at 250 RPM. Beads were washed 15 times with PT buffer (PBS + 0.05% Tween 20 (Sigma, P1379)) to remove unbound phage then transferred to a fresh plate. Beads were incubated with 100μL phage-resistant Omnimax E. coli (Invitrogen, A10469) at optical density (OD600) 0.6-0.8, shaken at 37 °C for 30 min. Following this 10 µL M13K07 helper phage (NEB, N0315S, final concentration 10^10 CFU/mL) was added and shaken at 37 °C for 45 min. Cells were transferred to 1 mL 2YT medium (at pH7, MP Biomedicals™, 113012031, supplemented with 150 µg/mL carbenicillin (Sigma, C9231) and 75 µg/mL kanamycin (Sigma, K1377) in a 96-deep well block with V-bottom (Corning, CLS3960) and grown with overnight shaking at 37 °C, 200 RPM. Plates were either centrifuged at 2000g (4 °C, 30 min) or transferred to screw cap tubes and pelleted by centrifugation at 4000 g and 4 °C for 15 min. 540 µL of supernatant was transferred to a new 96-deep well plate, 60 µL of 10×PBT (10×PBS + 2% BSA + 0.5% Tween 20) added and stored at 4 °C for subsequent rounds. Phage display was carried out for three rounds. A schematic of phage-display library screening is provided in Supplementary Fig. 12.
We amplified inserts from the input library and from the selected phage population directly from phage by PCR using primers: 5’-[…] and 5’-[…] (Life Technologies). […]

[4] = test system: activated CD8+T-cells (ATC); assay: Activated T-cell (ATC) migration induced by individual chemokines, inhibition by peptide; assay type: cell-based, human; details: peptide 10 uM; chemokines at EC80; Dunnett's test
Description: as §1, §2

[5] = test system: activated T-cells (ATC); assay: Chemokine dose-response, activated T-cell (ATC) migration; assay type: cell-based, human; details: mean of biological replicates (3-6)
Description: as §1, §2

For “TLETDTFYECPDAYAY [HD2SCR, reference compound]”, the “Solubility, Water” value [1] is listed as “Insoluble”, the “Solubility, DMSO” value [1] is listed as “Soluble” and the “Solubility, PBS” value [1] is listed as “Insoluble”.

For DEDDWDAYAPIWCYFT-NH2 [HD2CM304], the “Solubility, Water” value [1] is listed as “Insoluble”, the “Solubility, DMSO” value [1] is listed as “Soluble” and the “Solubility, PBS” value [1] is listed as “Insoluble”.

In the case of DDDDWWDYAPLTCYFD [HD2CM526], the “Solubility, Water” value [1] is listed as “Insoluble”, the “Solubility, DMSO” value [1] is listed as “Soluble” and the “Solubility, PBS” value [1] is listed as “Insoluble”.

For DEDDWDDYAPITCYFT-NH2 [HD2CM307], the “Solubility, Water” value [1] is given as “Insoluble”, the “Solubility, DMSO” value [1] is given as “Insoluble” and the “Solubility, HCOOH” value [1] is given as “Soluble”. For the same substance, the “Solubility, PBS” value [1] was “Insoluble”.

In the case of CCL3: human chemokine, Peprotech 300-08, the “Mean pEC80” value [2] is reported as 9.31 [M] and the “Mean pEC50” value [2] is reported as 9.64 [M].

In the case of CCL5: human chemokine, Peprotech 300-06, the “Mean pEC80” value [2] is reported as 8.36 [M] and the “Mean pEC50” value [2] is reported as 8.65 [M].

For “EEDDYTDYAPLTCYFT [HD2A7D, HD2 point mutant]”, the “log2E compared to parental HD2, CXnC chemokines” value [3] was “significant improvement” and the “log2E compared to parental HD2, all chemokines” value [3] was “significantly improved”.

In the case of “EEDDYTAYAPITCYFT [HD2L11I, HD2 point mutant]”, the “log2E compared to parental HD2, CC chemokines” value [3] is reported as “significant improvement”, the “log2E compared to parental HD2, all chemokines” value [3] is reported as “significantly improved” and the “inhibition of CCL19, CCL21, CXCL9, and CXCL11-induced migration of ATCs compared to parental HD2” value [4] is reported as “significant improvement in inhibition”.

For “EEDDYDAYAPLTCYFT [HD2T6D, HD2 point mutant]”, the “log2E compared to parental HD2, CXnC chemokines” value [3] was “significant improvement”, the “log2E compared to parental HD2, CC chemokines” value [3] was “significant improvement” and the “log2E compared to parental HD2, all chemokines” value [3] was “significantly improved”.

With “CXCL10: human chemokine, Peprotech 300-12” the “Mean pEC50” value [5] was 7.87 [M] and the “Mean pEC80” value [5] was 7.50 [M].

In the case of CCL7: human chemokine, Peprotech 300-17, the “Mean pEC80” value [2] is reported as 8.02 [M] and the “Mean pEC50” value [2] is reported as 8.37 [M].

With “CXCL12: human chemokine, Peprotech 300-28A” the “Mean pEC50” value [5] was 8.93 [M] and the “Mean pEC80” value [5] was 8.54 [M].

With “CCL19: human chemokine, Peprotech 300-29B” the “Mean pEC50” value [5] was 7.91 [M] and the “Mean pEC80” value [5] was 7.64 [M].

With “CXCL9: human chemokine, Peprotech 300-26” the “Mean pEC50” value [5] was 7.40 [M] and the “Mean pEC80” value [5] was 7.22 [M].

In the case of CCL2: human chemokine, Peprotech 300-04, the “Mean pEC80” value [2] is reported as 8.35 [M] and the “Mean pEC50” value [2] is reported as 8.73 [M].

In the case of EEDDYTAYAPLTCYFT-NH2 [HD2], the “Solubility, Water” value [1] is listed as “Insoluble”, the “Solubility, DMSO” value [1] is listed as “Soluble” and the “Solubility, PBS” value [1] is listed as “Insoluble”.

For “CXCL11: human chemokine, Peprotech 300-46”, the “Mean pEC50” value [5] was 8.25 [M] and the “Mean pEC80” value [5] was 7.99 [M].
